Experimental data: ChEMBL document CHEMBL1149599, “Design, syntheses, and antitumor activity of novel chromone and aurone derivatives” (Bioorg Med Chem, 2007)

How the values were obtained:
SW480 = experiment: Antiproliferative activity against human SW480 cells after 72 hrs by MTT method; type: functional, cell-based; conditions: SW480, 72 h
HEp-2 [1] = experiment: Antiproliferative activity against human Hep2 cells after 72 hrs by MTT method; type: functional, cell-based; conditions: HEp-2, 72 h
cells = type: functional, cell-based; conditions: Homo sapiens, MDA-MB-435S, 72 h
Description: Antiproliferative activity against human MDA-MB-435S cells after 72 hrs by MTT method

[2] = Antiproliferative activity against human HCCLM7 cells after 72 hrs by MTT method; type: functional, cell-based; conditions: HCCLM7, 72 h
HEp-2 [3] = experiment: Cell cycle arrest in Hep2 cells assessed as accumulation at G0/G1 phase at 5.7 uM after 36 hrs; type: functional, Homo sapiens
HEp-2 [4] = experiment: Cell cycle arrest in Hep2 cells assessed as accumulation at […] phase at 5.7 uM after 36 hrs; type: functional, Homo sapiens
HEp-2 [5] = experiment: Cell cycle arrest in Hep2 cells assessed as accumulation at G0/G1 phase at 5.7 uM after 24 hrs; type: functional, Homo sapiens
HEp-2 [6] = experiment: Cell cycle arrest in Hep2 cells assessed as accumulation at G0/G1 phase at 5.7 uM after 48 hrs; type: functional, Homo sapiens
HEp-2 [7] = experiment: Cell cycle arrest in Hep2 cells assessed as accumulation at G2/M phase at 5.7 uM after 24 hrs; type: functional, Homo sapiens
HEp-2 [8] = experiment: Cell cycle arrest in Hep2 cells assessed as accumulation at subG0 phase at 5.7 uM after 24 hrs; type: functional, Homo sapiens
HEp-2 [9] = experiment: Cell cycle arrest in Hep2 cells assessed as accumulation at S phase at 5.7 uM after 36 hrs; type: functional, Homo sapiens
HEp-2 [10] = experiment: Cell cycle arrest in Hep2 cells assessed as accumulation at subG0 phase at 5.7 uM after 36 hrs; type: functional, Homo sapiens
HEp-2 [11] = experiment: Cell cycle arrest in Hep2 cells assessed as accumulation at S phase at 5.7 uM after 48 hrs; type: functional, Homo sapiens
HEp-2 [12] = experiment: Cell cycle arrest in Hep2 cells assessed as accumulation at subG0 phase at 5.7 uM after 48 hrs; type: functional, Homo sapiens
HEp-2 [13] = experiment: Cell cycle arrest in Hep2 cells assessed as accumulation at S phase at 5.7 uM after 24 hrs; type: functional, Homo sapiens
HEp-2 [14] = experiment: Cell cycle arrest in Hep2 cells assessed as accumulation at […] phase at 5.7 uM after 48 hrs; type: functional, Homo sapiens
HEp-2 [15] = experiment: Cell cycle arrest in Hep2 cells assessed as accumulation at S phase at 4.7 uM after 48 hrs; type: functional, Homo sapiens
HEp-2 [16] = experiment: Cell cycle arrest in Hep2 cells assessed as accumulation at subG0 phase at 4.7 uM after 48 hrs; type: functional, Homo sapiens
HEp-2 [17] = experiment: Cell cycle arrest in Hep2 cells assessed as accumulation at G2/M phase at 4.7 uM after 24 hrs; type: functional, Homo sapiens
HEp-2 [18] = experiment: Cell cycle arrest in Hep2 cells assessed as accumulation at subG0 phase at 4.7 uM after 24 hrs; type: functional, Homo sapiens
HEp-2 [19] = experiment: Cell cycle arrest in Hep2 cells assessed as accumulation at G0/G1 phase at 4.7 uM after 24 hrs; type: functional, Homo sapiens
HEp-2 [20] = experiment: Cell cycle arrest in Hep2 cells assessed as accumulation at S phase at 4.7 uM after 24 hrs; type: functional, Homo sapiens
HEp-2 [21] = experiment: Cell cycle arrest in Hep2 cells assessed as accumulation at S phase at 4.7 uM after 36 hrs; type: functional, Homo sapiens
HEp-2 [22] = experiment: Cell cycle arrest in Hep2 cells assessed as accumulation at G0/G1 phase at 4.7 uM after 36 hrs; type: functional, Homo sapiens
HEp-2 [23] = experiment: Cell cycle arrest in Hep2 cells assessed as accumulation at subG0 phase at 4.7 uM after 36 hrs; type: functional, Homo sapiens
HEp-2 [24] = experiment: Cell cycle arrest in Hep2 cells assessed as accumulation at G2/M phase at 4.7 uM after 36 hrs; type: functional, Homo sapiens
HEp-2 [25] = experiment: Cell cycle arrest in Hep2 cells assessed as accumulation at G0/G1 phase at 4.7 uM after 48 hrs; type: functional, Homo sapiens
HEp-2 [26] = experiment: Cell cycle arrest in Hep2 cells assessed as accumulation at G2/M phase at 4.7 uM after 48 hrs; type: functional, cell-based, Homo sapiens

Compound: O=c1c(Sc2nc3ccccc3o2)coc2ccccc12
- IC50 (SW480): 36.4 µM
- IC50 (HEp-2 [1]): 29.6 µM
- IC50 (cells): 26.1 µM
- IC50 [2]: > 50 µM

Compound: O=c1c(Sc2nc3ccccc3[nH]2)coc2ccccc12
- IC50 (SW480): > 50 µM
- IC50 (HEp-2 [1]): 42.6 µM
- IC50 (cells): 30.3 µM
- IC50 [2]: > 50 µM

Compound: O=C1/C(=C/N2CCN(c3ccccc3)CC2)Oc2ccccc21
- IC50 (SW480): 36.4 µM
- IC50 (HEp-2 [1]): 27.7 µM
- IC50 (cells): 25.1 µM
- IC50 [2]: 45.1 µM

Compound: CN1CCN(/C=C2\Oc3ccccc3C2=O)C(c2ccccc2)C1 (stereo not given)
- IC50 (SW480): > 50 µM
- IC50 (HEp-2 [1]): > 50 µM
- IC50 (cells): > 50 µM
- IC50 [2]: > 50 µM

Compound: Cc1nnc(Sc2coc3ccccc3c2=O)s1
- IC50 (SW480): > 50 µM
- IC50 (HEp-2 [1]): 40.2 µM
- IC50 (cells): > 50 µM
- IC50 [2]: > 50 µM

Compound: CN1CCN(/C=C2\Oc3ccccc3C2=O)CC1
- IC50 (SW480): > 50 µM
- IC50 (HEp-2 [1]): > 50 µM
- IC50 (cells): 40.3 µM
- IC50 [2]: > 50 µM

Compound: Cc1cc(C)nc(Sc2coc3ccccc3c2=O)n1
- IC50 (SW480): > 50 µM
- IC50 (HEp-2 [1]): > 50 µM
- IC50 (cells): > 50 µM
- IC50 [2]: > 50 µM

Compound: O=c1[nH]cc(F)c(=O)[nH]1 [FLUOROURACIL]
- IC50 (SW480): 8.1 µM
- IC50 (HEp-2 [1]): 129 µM
- IC50 (cells): 14.5 µM
- IC50 [2]: 18.6 µM

Compound: Nc1nnc(Sc2coc3ccccc3c2=O)s1
- IC50 (SW480): > 50 µM
- IC50 (HEp-2 [1]): 47.7 µM
- IC50 (cells): > 50 µM
- IC50 [2]: > 50 µM

Compound: O=C1/C(=C/N2CCN(Cc3ccccc3)CC2)Oc2ccccc21
- IC50 (SW480): 6.6 µM
- Activity (HEp-2 [3]): 58.7%
- Activity (HEp-2 [4]): 17.46%
- IC50 (HEp-2 [1]): 5.7 µM
- Activity (HEp-2 [5]): 44.87%
- Activity (HEp-2 [6]): 75.85%
- IC50 (cells): 7.6 µM
- Activity (HEp-2 [7]): 32.14%
- Activity (HEp-2 [8]): 4.69%
- Activity (HEp-2 [9]): 23.84%
- Activity (HEp-2 [10]): 4.93%
- IC50 [2]: 9.6 µM
- Activity (HEp-2 [11]): 17.83%
- Activity (HEp-2 [12]): 18.2%
- Activity (HEp-2 [13]): 22.98%
- Activity (HEp-2 [14]): 6.32%

Compound: Cc1nnc(Sc2coc3ccccc3c2=O)o1
- IC50 (SW480): > 50 µM
- IC50 (HEp-2 [1]): > 50 µM
- IC50 (cells): > 50 µM
- IC50 [2]: > 50 µM

Compound: O=C1/C(=C/N2CCN(CC(c3ccc(F)cc3)c3ccc(F)cc3)CC2)Oc2ccccc21
- Activity (HEp-2 [15]): 20.89%
- Activity (HEp-2 [16]): 16.46%
- IC50 (SW480): 13.1 µM
- IC50 (HEp-2 [1]): 4.7 µM
- Activity (HEp-2 [17]): 19.09%
- IC50 (cells): 4.1 µM
- Activity (HEp-2 [18]): 0%
- Activity (HEp-2 [19]): 55.9%
- Activity (HEp-2 [20]): 25.01%
- Activity (HEp-2 [21]): 18.45%
- Activity (HEp-2 [22]): 63.03%
- Activity (HEp-2 [23]): 5.55%
- Activity (HEp-2 [24]): 18.52%
- IC50 [2]: 12.1 µM
- Activity (HEp-2 [25]): 73.71%
- Activity (HEp-2 [26]): 5.41%

Compound: O=C1/C(=C/N2CCCCC2)Oc2ccccc21
- IC50 (SW480): > 50 µM
- IC50 (HEp-2 [1]): > 50 µM
- IC50 (cells): 47.8 µM
- IC50 [2]: > 50 µM

Compound: O=c1c(Sc2nc3ccccc3s2)coc2ccccc12
- IC50 (SW480): 45.2 µM
- IC50 (HEp-2 [1]): 31.3 µM
- IC50 (cells): 17.1 µM
- IC50 [2]: > 50 µM
